What was measured:
[1] = tested on: dsDNA (DNA, duplex) AGAAGAGAAAGA/TCTTTCTCTTCT; test: visible absorbance titration at 424 nm; details: 100 mM K+, 10 mM Mg2+; 50 mM MES-LiOH pH 7.0, 25 °C; 1.0 µM TMPyP4
[2] = tested on: HteloDNA (DNA, G4) GGGTTAGGGTTAGGGTTAGGG; test: visible absorbance titration at 424 nm; details: 100 mM K+, 10 mM Mg2+; 50 mM MES-LiOH pH 7.0, 25 °C; 1.0 µM TMPyP4
[3] = tested on: HteloDNA (DNA, G4) GGGTTAGGGTTAGGGTTAGGG; test: visible absorbance titration at 405 nm; details: 100 mM K+, 10 mM Mg2+, 2 mM Na+; 50 mM MES-LiOH pH 7.0, 2 mM NaOH, 25 °C; 12.5 µM hemin
[4] = tested on: dsDNA (DNA, duplex) AGAAGAGAAAGA/TCTTTCTCTTCT; test: visible absorbance titration at 405 nm; details: 100 mM K+, 10 mM Mg2+, 2 mM Na+; 50 mM MES-LiOH pH 7.0, 2 mM NaOH, 25 °C; 12.5 µM hemin; 0–250 µM dsDNA, change too small for Ka

SMILES | Ka [1] | Ka [2] | Ka [3] | binding [4]
C[n+]1ccc(-c2c3nc(c(-c4cc[n+](C)cc4)c4ccc([nH]4)c(-c4cc[n+](C)cc4)c4nc(c(-c5cc[n+](C)cc5)c5ccc2[nH]5)C=C4)C=C3)cc1 | (1.8 ± 0.6) × 10^5 M^−1 | (1.2 ± 0.1) × 10^6 M^−1 |  | 
C=CC1=C(C)C2=Cc3c(C=C)c(C)c4[n]3[Fe]([Cl])[n]3c(c(C)c(CCC(=O)O)c3=CC3=NC(=C4)C(C)=C3CCC(=O)O)=CC1=N2 |  |  | (5.5 ± 3.1) × 10^4 M^−1 | weak

From publication PMC4431183 (2015)
